This passage reports GI50 and TGI results from PubChem BioAssay (NCI).

Assay in all cases: DTP human tumour cell line panel, 48 h
The test system of test [1] is BT-549 breast.
Test [2] concerns PC-3 prostate.
Test [3] deals with MDA-N.

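48-hour exposure; five concentrations; linearly interpolated endpoints. GI50: concentration for 50% inhibition of growth. TGI denotes the concentration required for complete inhibition of growth.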

A word on the GI50: it is the concentration that inhibits growth by half. As usually defined, the TGI is the concentration giving total growth inhibition. Low readings indicate greater sensitivity of the cells, high ones lower sensitivity of the cells. Regarding `O=C(Nc1ccc(N2CCNCC2)cc1)c1[nH]ncc1Nc1ncnc2sc3c(c12)CCC3`, in test [1], the GI50 is 1.13 µM and the total growth inhibition concentration (TGI) is 2.4 µM. Also, in test [2], the GI50 was 0.179 µM and the TGI was 1.49 µM.
As to `COc1cc2c(cc1OC)C(=O)/C(=C/c1cccc(OCC(=O)c3ccccc3)c1)C2`, in test [1], the GI50 was 24.9 µM and the TGI is > 100 µM. For the same molecule, in test [2], the GI50 was 5.11 µM and the TGI is > 100 µM.
In the case of `O=C(Oc1ccc(Cl)cc1Cl)c1ccccc1Nc1ccnc(C(F)(F)F)c1`, the GI50 in test [1] was 6.7 µM; in test [2], 8.24 µM. Also, the figures for the total growth inhibition concentration (TGI) in test [1] and in test [2] were 25.4 µM and 25.5 µM, respectively.
For `CC(=O)Nc1ccc2c(c1)c(C1=C(c3cn(C)c4ccccc34)C(=O)NC1=O)cn2C` the same measures were 1.55 µM, 0.754 µM, 14.8 µM and 22.1 µM.
For `O=C(CCCCCCSc1nc(-c2ccccc2)cc(-c2ccc(Cl)cc2)n1)NO`, the GI50 in test [1] was 3.67 µM; in test [2], 1.98 µM. The TGI in test [1] is 17.5 µM; in test [2] it was 10.5 µM.
Turning to `COc1ccc2c(c1)[nH]c(=O)c1c3cc(C)c(C)cc3cn21`, in test [1], the GI50 is 0.024 µM and the TGI turned out to be 0.366 µM. Besides, in test [2], the GI50 is < 0.01 µM and the total growth inhibition concentration (TGI) was determined as 1.58 µM.
`COc1cc(-c2nn(-c3ccc(NC(=O)c4ccc(Cl)c(Cl)c4)cc3)cc2-c2ccncc2)ccc1Cl`: in test [1], the GI50 was > 100 µM and the TGI was > 100 µM. Also, in test [2], the GI50 was 6.28 µM and the TGI is > 100 µM.
`Cc1ncc(CN=Cc2ccc(Cl)cc2)c(N)n1`: the TGI in test [1], in test [3] and in test [2] was > 100 µM in each case.
Take `COC(=O)N[C@H]1CCc2c(Br)c(OC)c(OC)c(OC)c2-c2ccc(SC)c(=O)cc21`: in test [1], the GI50 is < 0.01 µM and the TGI turned out to be 14.9 µM. In test [2], the GI50 is < 0.01 µM and the TGI worked out at 32.6 µM.
Regarding `CCOC(=O)c1c2c(n3ccc(NC(=O)CCN4CCCC4)cc13)C(=O)c1ncccc1C2=O`, the results for the GI50 in test [1] and in test [2] were 1.54 µM and 1.31 µM, respectively. The results for the TGI in test [1] and in test [2] were 3.64 µM and 2.88 µM, respectively.
For the molecule `O=C(CN1CCN(c2ncccn2)CC1)Nc1ccc(Cl)cc1C(=O)c1ccccc1Cl`, in test [1], the GI50 is > 100 µM and the TGI is > 100 µM. Further, in test [2], the GI50 was 9.47 µM and the TGI is > 100 µM.
On to `CCC[CH2][Sn-]([CH2]CCC)([CH2]CCC)[O]c1cc(Cl)c(Cl)cc1Cl`, for which, in test [2], the GI50 was 0.207 µM and the TGI came out at 0.458 µM.
As for `COc1cc(O)c([C@@H]2C[C@H](CCc3ccc(O)cc3)O[C@H](c3ccc(O)cc3)C2)c(O)c1C(=O)/C=C/c1ccc(O)cc1`, in test [1], the GI50 is 2.39 µM and the TGI is 5.34 µM. Besides, in test [2], the GI50 was 2.45 µM and the TGI is 6.94 µM.
For the molecule `Cc1ccc(-[n+]2c3cc(N)c(C)cc3nc3cc(C)c(Nc4ccccc4)cc32)cc1`, in test [1], the GI50 was 0.128 µM and the TGI stood at 0.717 µM. Also, in test [2], the GI50 is 0.174 µM and the TGI is 1.77 µM.
Regarding `COc1nc(N(C)O)nc(N(C)O)n1`, in test [1], the GI50 is 3.16 µM and the TGI was > 100 µM. Moreover, in test [2], the GI50 is 3.1 µM and the TGI is > 100 µM.
Regarding `CCOc1cc2ncc(C#N)c(Nc3ccc(OCc4cccc(F)c4)c(Cl)c3)c2cc1NC(=O)CC1CCSS1` (configuration not stated), the values for the GI50 in test [1] and in test [2] were 1.87 µM and 0.801 µM, respectively. Also, the TGI in test [1] is > 25 µM; in test [2], 5.91 µM.
Take `N=C1C(c2nc(-c3ccc(Br)cc3)cs2)=C(O)CN1Cc1cccnc1`: in test [1], the GI50 was 42.6 µM and the TGI was > 100 µM. For the same molecule, in test [2], the GI50 was 44.3 µM and the TGI is > 100 µM.
For `COc1cc(/C(C#N)=C/c2ccc3c(c2OC)OCO3)cc2c1OCO2`, in test [1], the GI50 is 0.669 µM and the TGI is 29.3 µM. In test [2], the GI50 is 0.0967 µM and the TGI was > 78.4 µM.
For `COc1ccc2cc(C(=O)/C=C/c3cc(OC)c(OC)c(OC)c3)ccc2c1`, in that order: 5.7 µM, 19.5 µM, 9.84 µM and > 50 µM.
For `COc1ccc(-c2nc3sc(C)cn3c2/C=C/C(=O)c2cc(OC)c(OC)c(OC)c2)cc1`, in that order: 4.13 µM, > 100 µM, 2.28 µM and 7.17 µM.
For `O=C1NCc2ccc3c(-c4cccc(Cl)c4)c[nH]c3c21`, in that order: 0.245 µM, > 45.7 µM, 0.281 µM and > 50 µM.
For the molecule `CS(=O)(=O)CCNCc1nc(-c2ccc3ncnc(Nc4ccc(F)c(Cl)c4)c3c2)cs1`, in test [1], the GI50 is > 25 µM and the TGI was > 25 µM. For the same molecule, in test [2], the GI50 is 14.7 µM and the TGI was > 25 µM.
`CNC(=O)c1cc(OC2CCC(NC(=O)Nc3ccc(Cl)c(C(F)(F)F)c3)CC2)ccn1` (configuration not stated): in test [1], the GI50 is 7.8 µM and the TGI was 23.6 µM. Moreover, in test [2], the GI50 is 3.51 µM and the TGI is > 44.6 µM.
Regarding `COc1ccc(-c2nn3ncccc3c2-c2ccnc(Nc3ccc(Cl)c(C(F)(F)F)c3)n2)cc1`, in test [1], the GI50 was 10.2 µM and the TGI is > 25 µM. For the same molecule, in test [2], the GI50 was 6.2 µM and the TGI was > 25 µM.
With `O=P(O)(CCP(=O)(O)c1ccccc1)c1ccccc1`, the TGI in test [1], in test [3] and in test [2] was > 100 µM each time.
For `C=C1CC2(OC1=O)C(=O)N(CCCCCCCN1C(=O)C3(CC(=C)C(=O)O3)c3ccccc31)c1ccccc12` (configuration not stated), in test [1], the GI50 is 2.22 µM and the total growth inhibition concentration (TGI) is 9.14 µM. Further, in test [2], the GI50 was 1.53 µM and the TGI is 6.58 µM.
In the case of `C=C1C(=O)O[C@H]2[C@H]1CC/C(COC(=O)c1cc3cc(F)ccc3[nH]1)=C\CC[C@@]1(C)O[C@@H]21`, in test [2], the GI50 was 1.7 µM and the TGI came out at 3.44 µM.
`COc1ccc2nc(N/N=C(\C)c3ccccn3)cc(C)c2c1`: the GI50 is 0.168 µM in test [1] and 0.433 µM in test [2]. For the same molecule, the results for the TGI in test [1] and in test [2] were 1.96 µM and 5.68 µM, respectively.
As to `C=CCn1c2c(c3ccccc3c1=O)C(=O)c1ccccc1-2`, the TGI in test [1], in test [3] and in test [2] was > 100 µM each time.
With `N#Cc1c(Sc2ccccc2N)cccc1Sc1ccccc1N`, the values for the GI50 in test [1] and in test [3] were 76.9 µM and 49.1 µM, respectively.
Take `N#Cc1c(-c2nc3ccccc3s2)c(=O)oc2cc(O)ccc12`: the concentration for total growth inhibition (TGI) is 62.8 µM in test [1], > 100 µM in test [3] and > 100 µM in test [2].
In the case of `O=[N+]([O-])C1C(c2ccccc2)C12c1ccccc1-c1ccccc12` (configuration not stated), in test [1], the GI50 is 0.543 µM and the TGI was found to be 7.32 µM. For the same molecule, in test [2], the GI50 is 0.947 µM and the total growth inhibition concentration (TGI) was > 100 µM.
For `COc1ccc(N=C2CSc3nnc(-c4cc(F)c(Cl)cc4Cl)n3N2)cc1`, in that order: 1.77 µM, 24.4 µM, 1.17 µM and 13.9 µM.
For the molecule `COc1cc(C2CC(c3ccc(C)cc3)=NN2C=O)ccc1Oc1ccnc2cc(Cl)ccc12` (configuration not stated), in test [1], the GI50 is 3.96 µM and the TGI is > 50 µM. In addition, in test [2], the GI50 was > 50 µM and the TGI is > 50 µM.
On to `Cc1cc(-c2ncc(CC(=O)Nc3ccc(-c4cnccn4)cn3)cc2C)ccn1`, for which, in test [2], the GI50 is 28.2 µM and the TGI was > 100 µM.
As to `C=C1C(=O)O[C@H]2[C@H]1CC/C(Cn1cc(CNC(=O)Cc3cn(C(=O)c4ccc(Cl)cc4)c4ccc(OC)cc34)nn1)=C\CC[C@@]1(C)O[C@@H]21`, in test [1], the GI50 is 1.61 µM and the TGI is 3.41 µM. Further, in test [2], the GI50 is 1.89 µM and the TGI came out at 3.71 µM.
In the case of `O=C(NNc1nc(Cl)nc(N2CCN(C(c3ccccc3)c3ccccc3)CC2)n1)c1ccccc1`, in test [1], the GI50 is 1.69 µM and the TGI amounted to 3.09 µM. Moreover, in test [2], the GI50 was 1.83 µM and the TGI came to 3.81 µM.
For the molecule `Cc1c2c(nn1-c1ccc(S(=O)(=O)NC(=S)Nc3ccccc3)cc1)-c1ccccc1CC2`, in test [1], the GI50 was > 50 µM and the TGI was > 50 µM. Besides, in test [2], the GI50 is 39.9 µM and the TGI is > 50 µM.
In the case of `COc1cc2c3c(n(C)c(=O)c2cc1OC)-c1cc2c(cc1/C3=C\CCCCCN)OCO2`, in test [1], the GI50 was 6.05 µM and the TGI worked out at 21.3 µM.
